Measurements reported in PubChem BioAssay (NCI).
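Each compound was tested at five concentrations against cells in 96-well plates for 48 hours. TGI marks complete inhibition of growth.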

How the values were obtained:
Assay in all cases: inhibition of tumour cell growth, NCI panel, 48 h
HCC-2998 colon = test system: HCC-2998 colon
UO-31 renal = test system: UO-31 renal
M14 melanoma = test system: M14 melanoma
SK-MEL-5 melanoma = test system: SK-MEL-5 melanoma
SK-OV-3 ovarian = test system: SK-OV-3 ovarian
SNB-19 CNS = test system: SNB-19 CNS
UACC-257 melanoma = test system: UACC-257 melanoma
OVCAR-4 ovarian = test system: OVCAR-4 ovarian
U251 CNS = test system: U251 CNS
NCI/ADR-RES ovarian = test system: NCI/ADR-RES ovarian
MDA-N = test system: MDA-N
CAKI-1 renal = test system: CAKI-1 renal
BT-549 breast = test system: BT-549 breast
EKVX NSCLC = test system: EKVX NSCLC
TK-10 renal = test system: TK-10 renal
HOP-62 NSCLC = test system: HOP-62 NSCLC
NCI-H460 lung = test system: NCI-H460 lung
NCI-H226 lung = test system: NCI-H226 lung
NCI-H23 lung = test system: NCI-H23 lung
OVCAR-5 ovarian = test system: OVCAR-5 ovarian
HCT-116 colon = test system: HCT-116 colon
SK-MEL-28 melanoma = test system: SK-MEL-28 melanoma
MOLT-4 leukemia = test system: MOLT-4 leukemia
MDA-MB-435 = test system: MDA-MB-435
HCT-15 colon = test system: HCT-15 colon
MCF7 breast = test system: MCF7 breast
SW-620 colon = test system: SW-620 colon
HOP-92 NSCLC = test system: HOP-92 NSCLC
SK-MEL-2 melanoma = test system: SK-MEL-2 melanoma
ACHN renal = test system: ACHN renal
T-47D breast = test system: T-47D breast
SF-539 CNS = test system: SF-539 CNS
DU-145 prostate = test system: DU-145 prostate
MDA-MB-231 breast = test system: MDA-MB-231 breast
SF-295 CNS = test system: SF-295 CNS
OVCAR-3 ovarian = test system: OVCAR-3 ovarian
KM12 colon = test system: KM12 colon
786-0 renal = test system: 786-0 renal
COLO 205 colon = test system: COLO 205 colon
SNB-75 CNS = test system: SNB-75 CNS
LOX IMVI melanoma = test system: LOX IMVI melanoma
OVCAR-8 ovarian = test system: OVCAR-8 ovarian
PC-3 prostate = test system: PC-3 prostate
IGROV1 ovarian = test system: IGROV1 ovarian
A549 NSCLC = test system: A549 NSCLC
HT29 colon = test system: HT29 colon
SN12C renal = test system: SN12C renal
HL-60(TB) leukemia = test system: HL-60(TB) leukemia
RXF 393 renal = test system: RXF 393 renal
HS 578T breast = test system: HS 578T breast
K-562 leukemia = test system: K-562 leukemia
CCRF-CEM leukemia = test system: CCRF-CEM leukemia
UACC-62 melanoma = test system: UACC-62 melanoma
A498 renal = test system: A498 renal
SR leukemia = test system: SR leukemia
SF-268 CNS = test system: SF-268 CNS
NCI-H522 lung = test system: NCI-H522 lung
MALME-3M melanoma = test system: MALME-3M melanoma
RPMI-8226 leukemia = test system: RPMI-8226 leukemia

O=C1Oc2ccccc2C(=O)/C1=C/N1C(=O)N/C(=C\c2cccc(O)c2)C1=O
TGI (HCC-2998 colon): > 100 µM
TGI (UO-31 renal): > 100 µM
TGI (M14 melanoma): > 100 µM
TGI (SK-MEL-5 melanoma): > 100 µM
TGI (SK-OV-3 ovarian): > 100 µM
TGI (SNB-19 CNS): > 100 µM
TGI (UACC-257 melanoma): > 100 µM
TGI (OVCAR-4 ovarian): > 100 µM
TGI (U251 CNS): > 100 µM
TGI (NCI/ADR-RES ovarian): > 100 µM
TGI (MDA-N): > 100 µM
TGI (CAKI-1 renal): > 100 µM
TGI (BT-549 breast): 73.2 µM
TGI (EKVX NSCLC): > 100 µM
TGI (TK-10 renal): > 100 µM
TGI (HOP-62 NSCLC): > 100 µM
TGI (NCI-H460 lung): > 100 µM
TGI (NCI-H226 lung): > 100 µM
TGI (NCI-H23 lung): > 100 µM
TGI (OVCAR-5 ovarian): > 100 µM
TGI (HCT-116 colon): > 100 µM
TGI (SK-MEL-28 melanoma): > 100 µM
TGI (MOLT-4 leukemia): > 100 µM
TGI (MDA-MB-435): > 100 µM
TGI (HCT-15 colon): > 100 µM
TGI (MCF7 breast): > 100 µM
TGI (SW-620 colon): > 100 µM
TGI (HOP-92 NSCLC): > 100 µM
TGI (SK-MEL-2 melanoma): > 100 µM
TGI (ACHN renal): > 100 µM
TGI (T-47D breast): > 100 µM
TGI (SF-539 CNS): > 100 µM
TGI (DU-145 prostate): > 100 µM
TGI (MDA-MB-231 breast): > 100 µM
TGI (SF-295 CNS): > 100 µM
TGI (OVCAR-3 ovarian): > 100 µM
TGI (KM12 colon): > 100 µM
TGI (786-0 renal): > 100 µM
TGI (COLO 205 colon): > 100 µM
TGI (SNB-75 CNS): > 100 µM
TGI (LOX IMVI melanoma): > 100 µM
TGI (OVCAR-8 ovarian): > 100 µM
TGI (PC-3 prostate): > 100 µM
TGI (IGROV1 ovarian): > 100 µM
TGI (A549 NSCLC): > 100 µM
TGI (HT29 colon): > 100 µM
TGI (SN12C renal): > 100 µM
TGI (HL-60(TB) leukemia): > 100 µM

CC(CO)(CO)Nc1ncnc2ccccc12
TGI (HCC-2998 colon): > 100 µM
TGI (UO-31 renal): > 100 µM
TGI (M14 melanoma): > 100 µM
TGI (SK-MEL-5 melanoma): > 100 µM
TGI (SNB-19 CNS): > 100 µM
TGI (UACC-257 melanoma): > 100 µM
TGI (RXF 393 renal): > 100 µM
TGI (HS 578T breast): > 100 µM
TGI (OVCAR-4 ovarian): > 100 µM
TGI (U251 CNS): > 100 µM
TGI (NCI/ADR-RES ovarian): > 100 µM
TGI (MDA-N): > 100 µM
TGI (CAKI-1 renal): > 100 µM
TGI (BT-549 breast): > 100 µM
TGI (EKVX NSCLC): > 100 µM
TGI (TK-10 renal): > 100 µM
TGI (HOP-62 NSCLC): > 100 µM
TGI (NCI-H460 lung): > 100 µM
TGI (NCI-H226 lung): > 100 µM
TGI (NCI-H23 lung): > 100 µM
TGI (OVCAR-5 ovarian): > 100 µM
TGI (K-562 leukemia): > 100 µM
TGI (HCT-116 colon): > 100 µM
TGI (SK-MEL-28 melanoma): > 100 µM
TGI (MOLT-4 leukemia): > 100 µM
TGI (CCRF-CEM leukemia): > 100 µM
TGI (MDA-MB-435): > 100 µM
TGI (HCT-15 colon): > 100 µM
TGI (UACC-62 melanoma): > 100 µM
TGI (SW-620 colon): > 100 µM
TGI (A498 renal): > 100 µM
TGI (HOP-92 NSCLC): > 100 µM
TGI (SK-MEL-2 melanoma): > 100 µM
TGI (SR leukemia): > 100 µM
TGI (ACHN renal): > 100 µM
TGI (T-47D breast): > 100 µM
TGI (SF-268 CNS): > 100 µM
TGI (DU-145 prostate): > 100 µM
TGI (MDA-MB-231 breast): > 100 µM
TGI (SF-295 CNS): > 100 µM
TGI (OVCAR-3 ovarian): > 100 µM
TGI (KM12 colon): > 100 µM
TGI (786-0 renal): > 100 µM
TGI (NCI-H522 lung): > 100 µM
TGI (SNB-75 CNS): > 100 µM
TGI (LOX IMVI melanoma): > 100 µM
TGI (OVCAR-8 ovarian): > 100 µM
TGI (PC-3 prostate): > 100 µM
TGI (IGROV1 ovarian): > 100 µM
TGI (A549 NSCLC): > 100 µM
TGI (HT29 colon): > 100 µM
TGI (SN12C renal): > 100 µM
TGI (MALME-3M melanoma): > 100 µM

CN1C(=O)[C@@H]2N(CSC2(C)C)C1=S
TGI (HCC-2998 colon): > 100 µM
TGI (UO-31 renal): > 100 µM
TGI (M14 melanoma): > 100 µM
TGI (SK-MEL-5 melanoma): > 100 µM
TGI (SK-OV-3 ovarian): > 100 µM
TGI (SNB-19 CNS): > 100 µM
TGI (UACC-257 melanoma): > 100 µM
TGI (RXF 393 renal): > 100 µM
TGI (OVCAR-4 ovarian): > 100 µM
TGI (U251 CNS): > 100 µM
TGI (NCI/ADR-RES ovarian): > 100 µM
TGI (MDA-N): > 100 µM
TGI (CAKI-1 renal): > 100 µM
TGI (BT-549 breast): > 100 µM
TGI (EKVX NSCLC): > 100 µM
TGI (TK-10 renal): > 100 µM
TGI (HOP-62 NSCLC): > 100 µM
TGI (NCI-H460 lung): > 100 µM
TGI (NCI-H226 lung): > 100 µM
TGI (NCI-H23 lung): > 100 µM
TGI (OVCAR-5 ovarian): > 100 µM
TGI (K-562 leukemia): > 100 µM
TGI (HCT-116 colon): > 100 µM
TGI (SK-MEL-28 melanoma): > 100 µM
TGI (MOLT-4 leukemia): > 100 µM
TGI (MDA-MB-435): > 100 µM
TGI (HCT-15 colon): > 100 µM
TGI (MCF7 breast): > 100 µM
TGI (UACC-62 melanoma): > 100 µM
TGI (SW-620 colon): > 100 µM
TGI (A498 renal): > 100 µM
TGI (HOP-92 NSCLC): > 100 µM
TGI (SK-MEL-2 melanoma): > 100 µM
TGI (SR leukemia): > 100 µM
TGI (ACHN renal): > 100 µM
TGI (T-47D breast): > 100 µM
TGI (SF-539 CNS): > 100 µM
TGI (SF-268 CNS): > 100 µM
TGI (DU-145 prostate): > 100 µM
TGI (MDA-MB-231 breast): > 100 µM
TGI (RPMI-8226 leukemia): > 100 µM
TGI (SF-295 CNS): > 100 µM
TGI (OVCAR-3 ovarian): > 100 µM
TGI (KM12 colon): > 100 µM
TGI (786-0 renal): > 100 µM
TGI (NCI-H522 lung): > 100 µM
TGI (COLO 205 colon): > 100 µM
TGI (SNB-75 CNS): > 100 µM
TGI (OVCAR-8 ovarian): > 100 µM
TGI (PC-3 prostate): > 100 µM
TGI (IGROV1 ovarian): > 100 µM
TGI (A549 NSCLC): > 100 µM
TGI (HT29 colon): > 100 µM
TGI (SN12C renal): > 100 µM

O=C(Cc1ccccc1)NNc1nc(NNC(=O)c2ccncc2)nc(Nc2ccccc2)n1
TGI (HCC-2998 colon): > 10 µM
TGI (UO-31 renal): > 10 µM
TGI (M14 melanoma): > 10 µM
TGI (SK-OV-3 ovarian): > 10 µM
TGI (UACC-257 melanoma): > 10 µM
TGI (HS 578T breast): > 10 µM
TGI (OVCAR-4 ovarian): > 10 µM
TGI (U251 CNS): > 10 µM
TGI (NCI/ADR-RES ovarian): > 10 µM
TGI (MDA-N): > 10 µM
TGI (CAKI-1 renal): > 10 µM
TGI (BT-549 breast): > 10 µM
TGI (EKVX NSCLC): > 10 µM
TGI (TK-10 renal): > 10 µM
TGI (HOP-62 NSCLC): > 10 µM
TGI (NCI-H460 lung): > 10 µM
TGI (K-562 leukemia): > 10 µM
TGI (SK-MEL-28 melanoma): > 10 µM
TGI (MOLT-4 leukemia): > 10 µM
TGI (CCRF-CEM leukemia): > 10 µM
TGI (HCT-15 colon): > 10 µM
TGI (MCF7 breast): > 10 µM
TGI (UACC-62 melanoma): > 10 µM
TGI (HOP-92 NSCLC): > 10 µM
TGI (SR leukemia): > 10 µM
TGI (T-47D breast): > 10 µM
TGI (SF-539 CNS): > 10 µM
TGI (SF-268 CNS): > 10 µM
TGI (DU-145 prostate): > 10 µM
TGI (MDA-MB-231 breast): > 10 µM
TGI (RPMI-8226 leukemia): > 10 µM
TGI (KM12 colon): > 10 µM
TGI (786-0 renal): > 10 µM
TGI (COLO 205 colon): > 10 µM
TGI (SNB-75 CNS): > 10 µM
TGI (LOX IMVI melanoma): > 10 µM
TGI (OVCAR-8 ovarian): > 10 µM
TGI (IGROV1 ovarian): > 10 µM
TGI (HT29 colon): > 10 µM
TGI (SN12C renal): > 10 µM
TGI (HL-60(TB) leukemia): > 10 µM
TGI (MALME-3M melanoma): > 10 µM
